Assay [1] addresses T1, full length human TREX1 (Homo sapiens, UniProt Q9NSU2).
T1 construct: N-terminally His-Tev tagged full length human TREX1; made in house; host or cells: E. coli
T1 sequence (Q9NSU2 1-314): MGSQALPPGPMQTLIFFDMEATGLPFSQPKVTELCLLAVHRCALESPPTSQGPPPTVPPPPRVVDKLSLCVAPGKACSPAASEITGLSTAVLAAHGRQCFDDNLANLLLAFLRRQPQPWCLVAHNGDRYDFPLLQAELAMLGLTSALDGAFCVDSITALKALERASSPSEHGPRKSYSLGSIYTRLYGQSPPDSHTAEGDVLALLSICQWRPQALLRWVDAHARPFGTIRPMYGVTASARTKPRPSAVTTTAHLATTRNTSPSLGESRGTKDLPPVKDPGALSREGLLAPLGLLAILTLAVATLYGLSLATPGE
In words: hTREX1 Biochemical Assay (fluorescence, dsDNA substrate degradation). The note with it: biochemical, read-out: hTREX1 IC50. The procedure:
(§1) Degradation of the dsDNA liberates free fluorophore to produce a fluorescent signal. Specifically, 7.5 μL of N-terminally His-Tev tagged full length human TREX1 (expressed in E. coli and purified in house) in reaction buffer (50 mM Tris, 150 mM NaCl, 2 mM DTT, 0.1 mg/mL BSA, 0.01% (w/v) Tween-20, 5 mM MgCl2, pH 7.4) was added to a 384-well Black ProxiPlate Plus (PerkinElmer) which already contained compound (150 nL) at varying concentrations as a 10 point dose-response in DMSO. The plate was incubated at 25° C. for 4 hours. Reactions were initiated by adding 7.5 μL of dsDNA substrate (Strand A: 5′ TEX615/GCT AGG CAG 3′; Strand B: 5′ CTG CCT AGC/IAbRQSp (Integrated DNA Technologies)) in reaction buffer. Final concentrations were 4 pM TREX1, 60 nM dsDNA substrate in reaction buffer with 1.0% DMSO (v/v). After 18 hours at 25° C., reactions were quenched by the addition of 2 μL of 500 mM EDTA.

Assay [2] addresses T2, full length mouse TREX1 (Mus musculus, UniProt Q91XB0).
T2 construct: N-terminally His-Tev tagged full length mouse TREX1; made in house; host or cells: E. coli
T2 sequence (Q91XB0 1-314): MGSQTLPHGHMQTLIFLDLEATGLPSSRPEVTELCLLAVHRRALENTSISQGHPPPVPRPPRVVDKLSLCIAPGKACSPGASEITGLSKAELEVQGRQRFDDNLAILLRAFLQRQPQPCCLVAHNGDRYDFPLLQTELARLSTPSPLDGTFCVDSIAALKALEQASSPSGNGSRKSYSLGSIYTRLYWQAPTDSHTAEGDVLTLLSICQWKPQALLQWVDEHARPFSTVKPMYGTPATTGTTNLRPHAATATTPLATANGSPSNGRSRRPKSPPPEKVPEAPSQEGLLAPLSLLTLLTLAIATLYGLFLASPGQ
In words: mTREX1 Biochemical Assay (fluorescence, dsDNA substrate degradation). The note with it: biochemical, read-out: mTREX1 IC50. The protocol: as §1, with “length mouse” for “length human”, “were 6” for “were 4”

Bounds are passed on as bounds.

Consider `COC(C)(C)Cn1cc(C(c2ccccc2C#N)C(C)c2nc(C(=O)Nc3cnoc3)c(O)c(=O)n2C)cn1` (single isomer, unassigned) [Example 37 D2E2], for which the IC50 in assay [1] is above 10 nM.

As to `CC(c1nc(C(=O)Nc2cnoc2)c(O)c(=O)n1C)C(c1cnn(CCN2CCN(C)CC2)c1)c1ccccc1C#N` (single isomer, unassigned) [Example 32 D2E2], the IC50 in assay [1] and in assay [2] was above 10 nM each time.

In the case of `CC(c1nc(C(=O)Nc2cnoc2)c(O)c(=O)n1C)C(c1cnccn1)c1ccccc1C#N` (single isomer, unassigned) [Example 66 D2E2], the IC50 in assay [1] and in assay [2] was above 10 nM each time.

As to `CCn1cc(C(c2cc(F)ccc2C#N)C(C)c2nc(C(=O)Nc3cnoc3)c(O)c(=O)n2C)cn1` (single isomer, unassigned) [Example 17 D2E2], the IC50 in assay [1] and in assay [2] was above 10 nM each time.

On to `COCCn1cc(C(c2cc(F)c(F)cc2Cl)C(C)c2nc(C(=O)Nc3cnoc3)c(O)c(=O)n2C)cn1` (single isomer, unassigned) [Example 73 D2E2], for which the IC50 in assay [1] and in assay [2] was above 10 nM throughout.

Consider `CC(c1nc(C(=O)Nc2cnoc2)c(O)c(=O)n1C)C(c1cnn(C)c1)c1c(C#N)cccc1C#N` (single isomer, unassigned) [Example 19 D1E1], for which the IC50 in assay [1] and in assay [2] was above 10 nM throughout.

For the molecule `CC(c1nc(C(=O)Nc2cnoc2)c(O)c(=O)n1C)C(c1cnn(CC(C)(C)O)c1)c1ccccc1C#N` (single isomer, unassigned) [Example 36 D1E2], the IC50 in assay [1] and in assay [2] was above 10 nM throughout.

Regarding `CC(c1nc(C(=O)Nc2cnoc2)c(O)c(=O)n1C)C(c1cnn(C)c1)c1c(C#N)cccc1C#N` (single isomer, unassigned) [Example 19 D2E1], the IC50 in assay [1] and in assay [2] was above 10 nM throughout.

Regarding `Cc1cn(C)nc1C(c1ccccc1C#N)C(C)c1nc(C(=O)Nc2cnoc2)c(O)c(=O)n1C` (single isomer, unassigned) [Example 64 D2E2], the IC50 in assay [1] and in assay [2] was above 10 nM in each case.

As to `CC(c1nc(C(=O)Nc2cnoc2)c(O)c(=O)n1C)C(c1cnn(C)c1)c1ccccc1C#N` (single isomer, unassigned) [Example 2 D2E1], the IC50 in assay [1] and in assay [2] was above 10 nM in each case.

As to `CC(c1nc(C(=O)Nc2cnoc2)c(O)c(=O)n1C)C(c1cnn(C)c1)c1ccc(F)cc1Cl` (single isomer, unassigned) [Example 74 D2E2], the IC50 in assay [1] was above 10 nM.

Take `CC(c1nc(C(=O)Nc2cnoc2)c(O)c(=O)n1C)C(c1cnn(CCN2CCN(C(=O)OC(C)(C)C)CC2)c1)c1ccccc1C#N` (single isomer, unassigned) [Example 21 D2E2]: the IC50 in assay [1] and in assay [2] was above 10 nM throughout.

As for `CC(c1nc(C(=O)Nc2cnoc2)c(O)c(=O)n1C)C(c1cn(C)cn1)c1ccccc1C#N` (single isomer, unassigned) [Example 39 D1E2], the IC50 in assay [1] and in assay [2] was above 10 nM each time.

As for `CC(c1nc(C(=O)Nc2cnoc2)c(O)c(=O)n1C)C(c1cnn(C(F)F)c1)c1ccccc1C#N` (single isomer, unassigned) [Example 38 D2E1], the concentration for half-maximal inhibition (IC50) in assay [1] and in assay [2] was above 10 nM each time.

Take `CC(c1nc(C(=O)Nc2cnoc2)c(O)c(=O)n1C)C(c1cnn(C)c1)c1ccc(F)cc1Cl` (single isomer, unassigned) [Example 74 D2E1]: the IC50 in assay [1] is above 10 nM.

As for `CC(c1nc(C(=O)Nc2cnoc2)c(O)c(=O)n1C)C(c1ccccc1C#N)c1c(C#N)cnn1C` (single isomer, unassigned) [Example 52 D2E2], the IC50 in assay [1] and in assay [2] was above 10 nM throughout.

`Cc1cc(C(c2ccccc2C#N)C(C)c2nc(C(=O)Nc3cnoc3)c(O)c(=O)n2C)ccn1` (single isomer, unassigned) [Example 6 D2E1]: the IC50 in assay [1] and in assay [2] was above 10 nM in each case.

Take `CC(c1nc(C(=O)Nc2cnoc2)c(O)c(=O)n1C)C(c1cnn(CCO)c1)c1ccccc1C#N` (single isomer, unassigned) [Example 35 D1E2]: the IC50 in assay [1] and in assay [2] was above 10 nM each time.

In the case of `CCn1ncc(C(c2ccccc2C#N)C(C)c2nc(C(=O)Nc3cnoc3)c(O)c(=O)n2C)c1C` (single isomer, unassigned) [Example 68 D1E2], the half-maximal inhibitory concentration (IC50) in assay [1] and in assay [2] was above 10 nM throughout.

On to `COC(C)(C)Cn1cc(C(c2ccccc2C#N)C(C)c2nc(C(=O)Nc3cnoc3)c(O)c(=O)n2C)cn1` (single isomer, unassigned) [Example 37 D1E2], for which the IC50 in assay [1] and in assay [2] was above 10 nM throughout.

`Cc1cn(C)nc1C(c1ccccc1C#N)C(C)c1nc(C(=O)Nc2cnoc2)c(O)c(=O)n1C` (single isomer, unassigned) [Example 64 D1E2]: the IC50 in assay [1] and in assay [2] was above 10 nM each time.

In the case of `CC(c1nc(C(=O)Nc2cnoc2)c(O)c(=O)n1C)C(c1cnn(C)c1)c1ccc(C(F)(F)F)cc1C#N` (single isomer, unassigned) [Example 30 D2E1], the IC50 in assay [1] and in assay [2] was above 10 nM each time.

In the case of `CC(c1nc(C(=O)Nc2cnoc2)c(O)c(=O)n1C)C(c1cnn(CCCN(C)C)c1)c1ccccc1C#N` (single isomer, unassigned) [Example 34 D1E2], the IC50 in assay [1] and in assay [2] was above 10 nM each time.

On to `Cc1cc(C(c2cc(F)ccc2Cl)C(C)c2nc(C(=O)Nc3cnoc3)c(O)c(=O)n2C)n(C)n1` (single isomer, unassigned) [Example 113 D2E2], for which the IC50 in assay [1] and in assay [2] was above 10 nM each time.

For `Cc1cnn(C(c2ccccc2C#N)C(C)c2nc(C(=O)Nc3cnoc3)c(O)c(=O)n2C)c1` (single isomer, unassigned) [Example 47 D1E1], in assay [1], the IC50 is below 1 nM.

With `CC(c1nc(C(=O)Nc2cnoc2)c(O)c(=O)n1C)C(c1cnn(C)c1)c1ccc(F)cc1Cl` (single isomer, unassigned) [Example 74 D1E2], the half-maximal inhibitory concentration (IC50) in assay [1] was above 10 nM.

For `Cc1ncc(C(c2ccccc2C#N)C(C)c2nc(C(=O)Nc3cnoc3)c(O)c(=O)n2C)cn1` (single isomer, unassigned) [Example 67 D2E1], the IC50 in assay [1] was above 10 nM.

Turning to `[2H]C([2H])([2H])n1cc(C(c2ccccc2C#N)C(C)c2nc(C(=O)Nc3cnoc3)c(O)c(=O)n2C)cn1` (single isomer, unassigned) [Example 76 D1E1], the 50% inhibitory concentration (IC50) in assay [1] was below 1 nM.

`CC(c1nc(C(=O)Nc2cnoc2)c(O)c(=O)n1C)C(c1cnn(C)c1)c1ccc(F)cc1Cl` (single isomer, unassigned) [Example 74 D1E1]: in assay [1], the IC50 was below 1 nM.

On to `Cc1ncc(C(c2ccccc2C#N)C(C)c2nc(C(=O)Nc3cnoc3)c(O)c(=O)n2C)cn1` (single isomer, unassigned) [Example 67 D2E2], for which, in assay [1], the IC50 is above 10 nM.

In the case of `Cc1cnn(C(c2ccccc2C#N)C(C)c2nc(C(=O)Nc3cnoc3)c(O)c(=O)n2C)c1` (single isomer, unassigned) [Example 47 D1E2], the IC50 in assay [1] is above 10 nM.

As to `Cc1ncc(C(c2ccccc2C#N)C(C)c2nc(C(=O)Nc3cnoc3)c(O)c(=O)n2C)cn1` (single isomer, unassigned) [Example 67 D1E1], in assay [1], the IC50 is above 10 nM.

As to `CCn1cc(C(c2ccc(F)cc2C#N)C(C)c2nc(C(=O)Nc3cnoc3)c(O)c(=O)n2C)c(C)n1` (single isomer, unassigned) [Example 55 D2E1], in assay [1], the IC50 was above 10 nM.

What is called IC50 is the concentration needed to halve the response being measured.

Values taken from patent US20240246946A1, “MODULATORS OF TREX1” (Constellation Pharmaceuticals, Inc., priority 2021, published 2024).
